Where a name gives a salt, the structure may show the parent alone.
Legend:
[1] = molecular target: T1, serotonine (5-HT) reuptake in synaptosomes (Rattus norvegicus, UniProt P31652); assay: Inhibition of serotonin reuptake in synaptosomes; type: biochemical; conditions: 3H-5-HT, as described in WO 97/16451, read-out: 5-HT-uptake IC50
T1 construct: in synaptosomes as described in WO 97/16451; from tissue

[2] = molecular target: T2, dopamine (DA) reuptake in synaptosomes (Rattus norvegicus, UniProt P23977); assay: Inhibition of dopamine reuptake in synaptosomes; type: biochemical; conditions: 3H-DA, as described in WO 97/16451, read-out: DA-uptake IC50
T2 construct: in synaptosomes as described in WO 97/16451; from tissue
T2 sequence (P23977 whole entry): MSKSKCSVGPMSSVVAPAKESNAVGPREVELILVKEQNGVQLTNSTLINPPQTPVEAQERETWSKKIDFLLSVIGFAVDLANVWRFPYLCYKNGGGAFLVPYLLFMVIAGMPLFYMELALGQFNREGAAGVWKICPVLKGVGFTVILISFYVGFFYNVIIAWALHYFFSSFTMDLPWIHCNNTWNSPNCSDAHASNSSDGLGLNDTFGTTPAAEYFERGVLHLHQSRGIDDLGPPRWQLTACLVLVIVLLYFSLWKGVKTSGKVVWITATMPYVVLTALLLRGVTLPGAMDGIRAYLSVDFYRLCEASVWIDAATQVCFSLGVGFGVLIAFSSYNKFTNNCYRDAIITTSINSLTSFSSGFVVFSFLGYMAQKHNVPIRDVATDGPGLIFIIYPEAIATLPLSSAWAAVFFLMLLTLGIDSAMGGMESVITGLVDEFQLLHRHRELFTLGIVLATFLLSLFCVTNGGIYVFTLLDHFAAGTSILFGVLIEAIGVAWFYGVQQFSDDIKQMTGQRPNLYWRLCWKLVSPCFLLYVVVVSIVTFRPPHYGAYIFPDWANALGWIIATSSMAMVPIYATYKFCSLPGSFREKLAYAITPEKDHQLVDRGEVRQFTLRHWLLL

[3] = molecular target: T3, noradrenaline (NA) reuptake in synaptosomes (Rattus norvegicus, UniProt Q63380); assay: Inhibition of noradrenaline reuptake in synaptosomes; type: biochemical; conditions: 3H-NA, as described in WO 97/16451, read-out: NA-uptake IC50
T3 construct: in synaptosomes as described in WO 97/16451; from tissue
T3 sequence (Q63380 1-617): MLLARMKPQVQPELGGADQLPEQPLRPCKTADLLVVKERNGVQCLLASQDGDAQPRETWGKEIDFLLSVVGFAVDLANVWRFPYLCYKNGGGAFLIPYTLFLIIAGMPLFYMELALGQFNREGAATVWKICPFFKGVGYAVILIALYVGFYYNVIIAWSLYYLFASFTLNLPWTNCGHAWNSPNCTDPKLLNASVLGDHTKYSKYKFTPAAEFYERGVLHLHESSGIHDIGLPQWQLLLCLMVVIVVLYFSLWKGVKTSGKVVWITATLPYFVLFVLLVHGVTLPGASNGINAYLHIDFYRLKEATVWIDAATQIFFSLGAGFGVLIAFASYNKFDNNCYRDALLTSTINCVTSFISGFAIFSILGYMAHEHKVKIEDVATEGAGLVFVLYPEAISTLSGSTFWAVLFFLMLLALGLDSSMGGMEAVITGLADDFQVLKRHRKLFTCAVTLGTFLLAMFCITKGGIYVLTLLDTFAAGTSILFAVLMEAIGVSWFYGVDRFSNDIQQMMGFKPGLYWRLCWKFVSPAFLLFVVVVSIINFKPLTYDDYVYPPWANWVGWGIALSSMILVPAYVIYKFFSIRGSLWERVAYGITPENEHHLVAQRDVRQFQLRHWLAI

T1 sequence (P31652 whole entry): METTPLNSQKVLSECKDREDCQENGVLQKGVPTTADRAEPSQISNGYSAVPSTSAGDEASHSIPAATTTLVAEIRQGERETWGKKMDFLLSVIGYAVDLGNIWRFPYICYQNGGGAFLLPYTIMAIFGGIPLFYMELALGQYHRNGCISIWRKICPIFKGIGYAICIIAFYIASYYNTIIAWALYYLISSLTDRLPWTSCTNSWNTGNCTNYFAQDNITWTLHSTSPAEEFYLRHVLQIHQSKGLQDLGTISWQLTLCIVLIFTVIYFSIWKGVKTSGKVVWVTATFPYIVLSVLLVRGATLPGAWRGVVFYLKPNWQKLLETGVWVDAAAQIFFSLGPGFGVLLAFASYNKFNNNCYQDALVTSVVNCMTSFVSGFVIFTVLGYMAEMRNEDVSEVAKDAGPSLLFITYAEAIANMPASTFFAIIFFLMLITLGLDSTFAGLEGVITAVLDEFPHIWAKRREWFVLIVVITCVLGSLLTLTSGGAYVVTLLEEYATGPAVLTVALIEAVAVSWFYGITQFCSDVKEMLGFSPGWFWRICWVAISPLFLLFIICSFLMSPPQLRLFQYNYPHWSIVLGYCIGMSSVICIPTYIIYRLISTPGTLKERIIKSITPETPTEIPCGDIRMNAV

| SMILES | IC50 [1] | IC50 [2] | IC50 [3] | melting point |
| --- | --- | --- | --- | --- |
| Cc1ccc(C2=CC3CCC(C2)N3)cc1Cl (single isomer, unassigned; (-)) [(−)-3-(3-Chloro-4-methylphenyl)-8-H-8-azabicyclo[3.2.1]oct-2-ene L-tartaric acid salt] | 1.8 nM | 140 nM | 6.8 nM | – |
| Cc1cc(C2=CC3CCC(C2)N3)ccc1Cl (single isomer, unassigned; (+)) (as salt: tartaric acid salt) [(+)-3-(4-Chloro-3-methylphenyl)-8-H-8-azabicyclo[3.2.1]oct-2-ene D-tartaric acid salt] | – | – | – | 164 to 177 °C |
| Cc1ccc(C2=CC3CCC(C2)N3)cc1Br (racemic) [(±)-3-(3-Bromo-4-methylphenyl)-8-H-8-azabicyclo[3.2.1]oct-2-ene hydrochloric acid salt] | 1.4 nM | 13 nM | 15 nM | – |
| Cc1ccc(C2=CC3CCC(C2)N3)cc1Cl (single isomer, unassigned; (-)) (as salt: tartaric acid salt) [(−)-3-(3-Chloro-4-methylphenyl)-8-H-8-azabicyclo[3.2.1]oct-2-ene L-tartaric acid salt] | – | – | – | 156.3 to 161.5 °C |
| Cc1cc(C2=CC3CCC(C2)N3)ccc1Cl (single isomer, unassigned; (+)) [(+)-3-(4-Chloro-3-methylphenyl)-8-H-8-azabicyclo[3.2.1]oct-2-ene D-tartaric acid salt] | 2.3 nM | 110 nM | 8.2 nM | – |

Reference: patent US20100286193A1, “Novel Azabicyclo[3.2.1]Oct-2-Ene Derivatives and Their Use as Monoamine Neurotransmitter Re-Uptake Inhibitors” (priority 2005, published 2010)
